Measurements reported in article PMC6936460 (Proceedings of the National Academy of Sciences of the …, 2019).

Test system: P. aeruginosa C1
Assay: P. aeruginosa lung infection mouse model
Assay type: in vivo, C57BL/6 mice
Conditions: for median lung bacteria load: 2 times per day for 3 days, n = 8, vehicle 2.51 × 10^7 CFU/g; for inhibition of lung colonization: vs vehicle

## colistin sulfate
2 mg/kg i.v.
  median lung bacteria load: 1.72 × 10^7 CFU/g
  inhibition of lung colonization: 31%
4 mg/kg i.v.
  median lung bacteria load: 0.86 × 10^7 CFU/g
  inhibition of lung colonization: 65%
